Laboratory results published in PMC12606464, “Investigating NFE2L1 activators for targeted protein aggregate clearance: a follow-up study” (RSC Medicinal Chemistry, 2025).

Columns and labels:
[1] = system: chymotrypsin-like activity of the 26S proteasome; test: Proteasome activity assay in SH-SY5Y cell lysates; assay type: cell-based, human; details: for Geometric mean, Treatment (Control = 1): SH-SY5Y, Figure S6
Procedure: Building on previous findings, we investigated how selected RUN compounds influence proteasomal function itself. Specifically, we examined the chymotrypsin-like activity of the 26S proteasome following a 16 hour treatment with 7.5 μM RUN compounds in the HEK293 cell line. […] In addition, two other cell lines, MCF7 and SH-SY5Y, were measured (see the SI, Fig. S6).
Figure S6: RUN compounds enhance chymotrypsin-like activity of the 26S proteasome in […]
Cells were treated with 5 µM RUN compounds for 16 hours, with DMSO (0.5%) as the vehicle control. Proteasome chymotrypsin-like activity was measured in cell lysates at 37 °C. Four independent experiments were conducted. Statistical analysis was performed using ratio paired t-tests corrected for multiple comparisons with the Holm-Šídák's method (α = 0.05). Detailed results of the analysis are shown in Supplementary Table S16. […]
2.7 Proteasome activity assay
The corresponding cell lines (HEK293, MCF7, or SH-SY5Y) were seeded into 6-well plates and allowed to adhere overnight under standard culture conditions. On the following day, HEK293 cells were treated with 7.5 µM RUN compounds, whereas MCF7 and SH-SY5Y cells were treated with 5 µM RUN compounds, for 16 hours each. After treatment, cells were harvested, resuspended in lysis buffer (50 mM HEPES, pH 7.5; 5 mM EDTA; 150 mM NaCl; 2 mM ATP; 1% Triton), and centrifuged at 15,000 rpm for 15 minutes at 4 °C. The resulting lysates (25 µg total protein) were incubated with 200 µM of the fluorogenic substrate Suc-Leu-Leu-Val-Tyr-AMC (Bachem, I1395) in assay buffer (50 mM Tris, pH 8.0; 10 mM MgCl₂; 1 mM ATP; 1 mM DTT) at 37 °C. Free AMC release was detected by measuring fluorescence at 360/460 nm. Results of RUN compounds were compared to the DMSO control using a ratio paired t-test corrected for multiple comparisons with the Holm-Šídák's method (α = 0.05) in GraphPad Prism (v 10.6.1).
2.8 XBP1-endoplasmic reticulum (ER) stress reporter assay […]
Two sets of comparisons: 1) […]
treatment with MG132 inhibitor or RUN compounds with DMSO control, 2) RUN compounds vs MG132, were done by two-way repeated-measures ANOVA with Geisser–Greenhouse correction, followed by Dunnett’s multiple comparisons test with individual variances in […]
HCT116 parental cells (WT) and two independent DDI2 knockout clones (KO 04 and KO 11), in which NFE2L1 activation is impaired, were transiently transfected with plasmids encoding either a non-aggregating EGFP-HttQ23 or an aggregation-prone EGFP-HttQ74 construct using Lipofectamine 2000 (Thermo Fisher Scientific) according to the manufacturer’s

[2] = system: ubiquitin-proteasome system; test: Ub-G76V-GFP reporter degradation in U2OS cells; assay type: cell-based; details: U2OS cells, Fig. S3
Source text: We next examined whether the selected RUN compounds activate the NFE2L1 pathway in a stress-independent manner, while preserving normal ubiquitin-dependent proteasomal degradation. This distinction is crucial, as the therapeutic benefit of NFE2L1 activation lies in its ability to alleviate proteotoxic stress and target disease-related proteins for degradation without compromising normal proteostasis. To assess this, U2OS cells stably expressing the short-lived fluorescent reporter Ub-G76V-GFP were treated with various concentrations of RUN compounds. […] We also examined whether compound-induced activation of NFE2L1 could be attributed to the generation of reactive oxygen species (ROS). To test this, the 3×PSMA4-ARE-LUC reporter assay was performed in the presence or absence of the antioxidant N-acetyl-L-cysteine (NAC). A decrease in reporter activity upon NAC treatment would indicate pathway activation through oxidative stress.
RUN compound (5 µM) for 8 hours. Fluorescence intensity was normalized to cell viability (measured by the alamarBlue assay) and compared to vehicle control (DMSO). Unlike the […]
as means ± SD from three independent experiments (n = 3). Statistical analysis was performed using a multiple unpaired t-test with Welch’s correction, with adjustment for multiple comparisons by the Holm–Šídák method (α = 0.05). ****p<0.0001. Detailed results of the analysis are shown in Supplementary Table S14. […]
2.4 Monitoring protein degradation using UbG76V-GFP reporter cells
U2OS cells stably expressing the Ub-G76V-GFP reporter were seeded into 96-well plates at and cultured overnight under standard conditions. On the following day, cells were treated with the indicated test compounds or DMSO vehicle control for 8 hours. After treatment, GFP fluorescence intensity was measured, providing a readout of proteasome-dependent degradation of the Ub-G76V-GFP substrate. Cell viability was then assessed in the same wells using the alamarBlue assay according to the manufacturer’s protocol. Viability values were used for normalization of fluorescence data to account for differences in cell number. Accumulation of GFP signal relative to DMSO-treated controls was interpreted as reduced degradation of UPS substrates, indicating potential effects of the compounds on the natural protein turnover.
Statistical comparison of RUN compounds with ASC-JM17 was performed using a multiple unpaired t-test with Welch’s correction, with adjustment for multiple comparisons by the Holm–Šídák method (α = 0.05) in GraphPad Prism (v 10.6.1). […]
RNA was extracted using […]
the RNeasy® Plus Micro Kit according to the manufacturer’s instructions. Complementary DNA (cDNA) was synthesized from RNA using either t he TATAA GrandScript cDNA Supermix (TATAA Biocenter) or the QuantiTect® Reverse Transcription Kit (Qiagen), following the respective protocols. Quantitative RT -PCR was performed on a LightCycler® 480 instrument (Roche Life Science) using the TATAA SYBR® Gr andMaster® Mix (TATAA […]
Biocenter). Gene expression levels were normalized to RPLP0, and relative expression was calculated using the ΔΔCt method. Data were expressed as fold change relative to the corresponding DMSO control. Statistical analysis of changes in gene expression was performed w ith a ratio paired t-test corrected for multiple comparisons using Holm-Šídák's method (α = 0.05) in GraphPad Prism (v 10.6.1).
Table S1. Sequences of primer pairs used in the qRT -PCR analysis of gene expression.

| SMILES | Geometric mean, Treatment (Control = 1) [1] | Ub-G76V-GFP reporter assay, mean [2] | Proteasome chymotrypsin-like activity in SH-SY5Y cells ([1]; 5 μM, 16 h) |
| --- | --- | --- | --- |
| COc1ccc(/C=C2\CC(N)C/C(=C\c3ccc(OC)c(OC)c3)C2=O)cc1OC (stereo not shown) [RUN-81] | 1.28 | 1.14 | – |
| COc1ccc(/C=C2\CC(NC(=O)C3CCCC3)C/C(=C\c3ccc(OC)c(OC)c3)C2=O)cc1OC (stereo not shown) [RUN-89] | 1.88 | 1.17 | higher median for RUN-89 without reaching statistical significance |
| COc1ccc(/C=C2\CC(NC(=O)c3ccccn3)C/C(=C\c3ccc(OC)c(OC)c3)C2=O)cc1OC (stereo not shown) [RUN-94] | 1.50 | 1.19 | – |
